One may read the pIC50 as −log10 of the IC50, conventionally taken in molar units. The inhibition is the change of the read-out against control, counted positive when it falls.

The assay deals with T1, CCR2 (Homo sapiens, UniProt P41597).
T1 sequence (P41597 1-360 isoform P41597-2): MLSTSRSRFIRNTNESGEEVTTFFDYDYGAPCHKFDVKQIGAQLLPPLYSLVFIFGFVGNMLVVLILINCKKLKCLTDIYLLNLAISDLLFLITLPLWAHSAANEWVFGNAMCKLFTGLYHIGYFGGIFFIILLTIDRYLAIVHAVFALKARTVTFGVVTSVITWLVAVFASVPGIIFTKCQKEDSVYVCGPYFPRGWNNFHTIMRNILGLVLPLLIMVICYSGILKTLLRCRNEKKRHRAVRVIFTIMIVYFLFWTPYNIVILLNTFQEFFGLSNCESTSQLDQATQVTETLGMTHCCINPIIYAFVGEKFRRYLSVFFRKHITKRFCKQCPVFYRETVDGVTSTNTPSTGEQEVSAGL
Kind of assay: MCP-1 Receptor Binding Assay in THP-1 Cells. The settings on record: for pIC50: THP-1 cells, 0.5 nM 125I labeled MCP-1, 2 hours at 30° C., read-out: Mean Ligand Binding IC50 (inhibition of MCP-1 binding to CCR2); for inhibition at 25 µM: MCP-1 binding to CCR2, test concentration of 25 μM, unless indicated otherwise, read-out: % Inhibition Ligand Binding. How it is done:
THP-1 cells were obtained from American Type Culture Collection (Manassas, Va., USA). […] The cell density was maintained between 0.5×10^6 cells/mL.
Cells were then harvested onto a filter plate, dried, and 20 μL of Microscint 20 was added to each well. Plates were counted in a TopCount NXT, Microplate Scintillation & Luminescence Counter (Perkin-Elmer Life Sciences, Inc. Boston, Mass.). Blank values (buffer only) were subtracted from all values and drug treated values were compared to vehicle treated values. 1 μM cold MCP-1 was used for nonspecific binding.

pIC50: −log10 of the molar value.

Turning to `C[N+](C)(Cc1ccc(NC(=O)c2ccc3ccccc3c2)cc1)C1CCOCC1` [Cpd 90, dimethyl-{4-[(naphthalene-2-carbonyl)-amino]-benzyl}-(tetrahydro-pyran-4-yl)-ammonium iodide], the negative-log IC50 (pIC50) was 6.66.
Same read-out and setting: the same measure for `CC[N+](C)(Cc1ccc(NC(=O)c2ccc3ccccc3c2)cc1)C1CCOCC1` (stereo not shown) [Cpd 91, ethyl-methyl-{4-[(naphthalene-2-carbonyl)-amino]-benzyl}-(tetrahydro-pyran-4-yl)-ammonium iodide]: 5.39.
With `CCC[N+](C)(Cc1ccc(NC(=O)c2ccc3ccccc3c2)cc1)C1CCOCC1` (stereo not shown) [Cpd 92, methyl-{4-[(naphthalene-2-carbonyl)-amino]-benzyl}-propyl-(tetrahydro-pyran-4-yl)-ammonium iodide], the inhibition at 25 µM came out at 54%.
`C[N+](C)(Cc1ccc(NC(=O)c2ccc3ccc(Br)cc3c2)cc1)C1CCOCC1` [Cpd 93, {4-[(7-bromo-naphthalene-2-carbonyl)-amino]-benzyl}-dimethyl-(tetrahydro-pyran-4-yl)-ammonium iodide]: the pIC50 was 6.05.
The same measure, in the same setting: as for `C[N+](C)(Cc1ccc(NC(=O)c2ccc3ccc(Br)cc3c2)cc1)C1CCCCC1` [Cpd 94, {4-[(7-bromo-naphthalene-2-carbonyl)-amino]-benzyl}-cyclohexyl-dimethyl-ammonium iodide], the figure is 5.89; as for `C[N+](C)(Cc1ccc(NC(=O)C2=Cc3cc(Br)ccc3OC2)cc1)C1CCOCC1` [Cpd 95, {4-[(6-bromo-2H-chromene-3-carbonyl)-amino]-benzyl}-dimethyl-(tetrahydro-pyran-4-yl)-ammonium iodide], 6.74.
The same measure, in the same setting: the same measure for `C[N+](C)(Cc1ccc(NC(=O)C2=Cc3cc(Cl)ccc3OC2)cc1)C1CCOCC1` [Cpd 96, {4-[(6-chloro-2H-chromene-3-carbonyl)-amino]-benzyl}-dimethyl-(tetrahydro-pyran-4-yl)-ammonium iodide]: 6.96; for `C[N+](C)(Cc1ccc(NC(=O)C2=Cc3cc(Br)ccc3OC2)cc1)C1CCCCC1` [Cpd 97, {4-[(6-bromo-2H-chromene-3-carbonyl)-amino]-benzyl}-cyclohexyl-dimethyl-ammonium iodide]: 6.35; for `C[N+](C)(Cc1ccc(NC(=O)C2=Cc3cc(Cl)ccc3OC2)cc1)C1CCCCC1` [Cpd 98, {4-[(6-chloro-2H-chromene-3-carbonyl)-amino]-benzyl}-cyclohexyl-dimethyl-ammonium iodide]: 6.57.
With `C[N+](C)(Cc1ccc(CNC(=O)C2=Cc3cc(Br)ccc3OC2)cc1)C1CCOCC1` [Cpd 99, (4-{[(6-bromo-2H-chromene-3-carbonyl)-amino]-methyl}-benzyl)-dimethyl-(tetrahydro-pyran-4-yl)-ammonium iodide], the inhibition at 25 µM turned out to be 34%.
Regarding `C[N+](C)(Cc1ccc(NC(=O)C2=Cc3c(Cl)cc(Cl)cc3OC2)cc1)C1CCOCC1` [Cpd 100, {4-[(5,7-dichloro-2H-chromene-3-carbonyl)-amino]-benzyl}-dimethyl-(tetrahydro-pyran-4-yl)-ammonium iodide], the negative logarithm of the IC50 (pIC50) was 6.28.
Still for that read-out and setting: as for `C[N+](C)(Cc1ccc(NC(=O)C2=Cc3c(Cl)cc(Cl)cc3OC2)cc1)C1CCCCC1` [Cpd 101, cyclohexyl-{4-[(5,7-dichloro-2H-chromene-3-carbonyl)-amino]-benzyl}-dimethyl-ammonium iodide], the figure is 5.96; as for `C[N+](C)(Cc1ccc(NC(=O)C2=Cc3cc(Cl)cc(Cl)c3OC2)cc1)C1CCOCC1` [Cpd 102, {4-[(6,8-dichloro-2H-chromene-3-carbonyl)-amino]-benzyl}-dimethyl-(tetrahydro-pyran-4-yl)-ammonium iodide], 6.72; as for `Cc1ccc2c(c1)C=C(C(=O)Nc1ccc(C[N+](C)(C)C3CCOCC3)cc1)CO2` [Cpd 103, dimethyl-{4-[(6-methyl-2H-chromene-3-carbonyl)-amino]-benzyl}-(tetrahydro-pyran-4-yl)-ammonium iodide], 6.09.
On the same count and under the same terms, the same measure for `COc1ccc2c(c1)C=C(C(=O)Nc1ccc(C[N+](C)(C)C3CCOCC3)cc1)CO2` [Cpd 104, {4-[(6-methoxy-2H-chromene-3-carbonyl)-amino]-benzyl}-dimethyl-(tetrahydro-pyran-4-yl)-ammonium iodide]: 5.72.
In the case of `Cc1ccc2c(c1)C=C(C(=O)Nc1ccc(C[N+](C)(C)C3CCCCC3)cc1)CO2` [Cpd 105, cyclohexyl-dimethyl-{4-[(6-methyl-2H-chromene-3-carbonyl)-amino]-benzyl}-ammonium iodide], the negative-log IC50 (pIC50) was 6.49.
With `COc1ccc2c(c1)C=C(C(=O)Nc1ccc(C[N+](C)(C)C3CCCCC3)cc1)CO2` [Cpd 106, cyclohexyl-{4-[(6-methoxy-2H-chromene-3-carbonyl)-amino]-benzyl}-dimethyl-ammonium iodide], the negative-log IC50 (pIC50) is 5.96.
The same measure, in the same setting: as for `C[N+](C)(Cc1ccc(NC(=O)C2=Cc3cc(Cl)cc(Cl)c3OC2)cc1)C1CCCCC1` [Cpd 107, cyclohexyl-{4-[(6,8-dichloro-2H-chromene-3-carbonyl)-amino]-benzyl}-dimethyl-ammonium iodide], the figure is 6.77.
Still for that read-out and setting: as for `C[N+](C)(Cc1ccc(NC(=O)C2=Cc3cc(Cl)ccc3OC2)cc1)C[C@H]1CCCO1` [Cpd 108, (2R)-{4-[(6-chloro-2H-chromene-3-carbonyl)-amino]-benzyl}-dimethyl-(tetrahydro-furan-2-ylmethyl)-ammonium iodide], the figure is 5.51.
Still for that read-out and setting: as for `C[N+](C)(Cc1ccc(NC(=O)C2=Cc3cc(Cl)ccc3OC2)cc1)C[C@@H]1CCCO1` [Cpd 109, (2S)-{4-[(6-chloro-2H-chromene-3-carbonyl)-amino]-benzyl}-dimethyl-(tetrahydro-furan-2-ylmethyl)-ammonium iodide], the figure is 5.28; as for `C[N+](C)(Cc1ccc(NC(=O)C2=Cc3cc(Cl)ccc3OC2)cc1)[C@H]1CC2CCC1C2` (stereo partly drawn) [Cpd 110, (2S)-bicyclo[2.2.1]hept-2-yl-{4-[(6-chloro-2H-chromene-3-carbonyl)-amino]-benzyl}-dimethyl-ammonium iodide], 6.49; as for `C[N+](C)(Cc1ccc(NC(=O)C2=Cc3cc(Cl)cc(Cl)c3OC2)cc1)C1CC2CCC1C2` (stereo not shown) [Cpd 111, bicyclo[2.2.1]hept-2-yl-{4-[(6,8-dichloro-2H-chromene-3-carbonyl)-amino]-benzyl}-dimethyl-ammonium iodide], 5.70.
As to `Cc1cccc2c1OCC(C(=O)Nc1ccc(C[N+](C)(C)C3CCOCC3)cc1)=C2` [Cpd 112, dimethyl-{4-[(8-methyl-2H-chromene-3-carbonyl)-amino]-benzyl}-(tetrahydro-pyran-4-yl)-ammonium iodide], the negative-log IC50 (pIC50) was 6.82.
On the same count and under the same terms, as for `Cc1cccc2c1OCC(C(=O)Nc1ccc(C[N+](C)(C)C3CCCCC3)cc1)=C2` [Cpd 113, cyclohexyl-dimethyl-{4-[(8-methyl-2H-chromene-3-carbonyl)-amino]-benzyl}-ammonium iodide], the figure is 6.28; as for `Cc1cc(Cl)cc2c1OCC(C(=O)Nc1ccc(C[N+](C)(C)C3CCCCC3)cc1)=C2` [Cpd 114, {4-[(6-chloro-8-methyl-2H-chromene-3-carbonyl)-amino]-benzyl}-cyclohexyl-dimethyl-ammonium iodide], 7.22.

Source of the values: US7799824B2, “Quaternary salt CCR2 antagonists” (OraPharma, Inc., priority 2004, dated 2010).
